Where “and” joins values, the source holds several entries; their conditions need not be identical. Equal entries are not always repeated.
System: 379773-124-R-J2-PDC spheroid viability
Experiment: Anticancer human tumor 379773-124-R-J2-PDC patient-derived endometrial carcinoma cell line growth inhibition [POLQ]
Conditions: spheroids with HUVEC and MSC; for viability, T/C: stronger effect = lower value
Experimental: Multicellular complex tumor spheroid response to Polymerase (POL) inhibitors (novobiocin, ART-558, RP6685) in combination with a variety of drugs and investigational agents in selected tumor cell lines
The POL inhibitors (novobiocin, ART-558, and RP6685) were evaluated both individually and in combination with standard of care and investigational anticancer small molecules within a complex spheroid model of solid tumors. . Complex spheroids include a stromal component modeled by human endothelial cells (HUVEC) and fibroblasts modeled by human mesenchymal stem cells (MSCs). The concentration ranges selected for each drug and investigational agent were based upon clinically achievable concentrations if the clinical Cmax of the agent was known.
Compounds. The drugs and investigational agents: novobiocin (NSC847541), ART-558 (NSC835418), RP-6685 (NSC848927), peposertib (NSC802822), ceralasertib (NSC780249), elimusertib (NSC800525), camonsertib (NSC841442), AZD-1390 (NSC803789), olaparib (NSC753686), talazoparib (NSC767125), rucaparib (NSC756644), sotorasib (NSC818433), MRTX-1133 (NSC836407), SN-38 (NSC673596), topotecan (NSC609699), epotoside (NSC141540), doxorubicin (NSC123127), gemcitabine (NSC613327), 5-fluorouracil (NSC19893), paclitaxel (NSC125973), vemurafenib (NSC761431), MSA-2 (NSC828583), SN-011 (NSC837082), adavosertib (NSC754352), prexasertib (NSC758257), carboplatin (NSC241240) and oxaliplatin (NSC266046), were obtained from the National Cancer Institute (NCI) Developmental Therapeutics Program Chemical Repository (21). The FDA-approved anticancer drug set is available from the Developmental Therapeutics Program at https://dtp.cancer.gov/organization/dscb/obtaining/. […] The stock solutions were prepared in dimethyl sulfoxide (DMSO, Sigma-Aldrich, St. Louis, MO, cat. D2650), except for the platinum compounds which were prepared in saline (Quality Biological, Gaithersburg, MD, cat. 114-055-101), at 800-fold the tested concentration and stored at -70 degrees C prior to their use. All drugs and investigational agents were tested over a range starting from a high concentration at or near the clinical Cmax and decreasing in half-log increments. If the clinical Cmax for an agent had not been determined, the highest concentration tested was 10 microM, except for SN-38, which was tested at a high concentration of 1 microM.
Cell Culture. All cells were maintained in an incubator at 37 degrees C and 5% CO2 with 95% humidity. The PDC lines were cultured according to standard operating procedures established by the NCI PDMR (https://pdmr.cancer.gov). Table 3 of the manuscript, lists the cell lines along with the number of the three cell types plated to form the mct-spheroids and media for tumor cell growth. After thawing, all PDC lines, except 997537-175-T-J1-PDC and 415267-285-R-J2-PDC, were cultured in Matrigel-coated flasks prepared with a working solution of 1X Ham's F-12 nutrient mix, without supplementation (Thermo Fisher Scientific, cat. 11765054), 100 U/mL penicillin-streptomycin (Thermo Fisher Scientific, cat. 15140122), and 2.5% Matrigel (Corning Inc., Corning, NY, cat. 354248) for the first three passages. The two PDC lines 997537-175-T-J1-PDC and 415267-285-R-J2-PDC were cultured on uncoated flasks. The 857933-349-R-J2-PDC line was cultured in 6C/Colon 1B media containing advanced DMEM/F-12 (Thermo Fisher Scientific, cat. 12634028), 10 mM HEPES (Thermo Fisher Scientific, cat. 15630080), 1X GlutaMAX supplement (Thermo Fisher Scientific, cat. 35050061), 0.1 mg/mL primocin (InvivoGen, San Diego, CA, cat. ant-pm-2), 10% defined fetal bovine serum, heat inactivated (HyClone Laboratories Inc., Logan, UT, cat. SH30070.03HI), 50% L-WRN conditioned media (ATCC, cat. CRL-3276), 1.25 mM N-Acetyl-L-cysteine (Sigma-Aldrich, cat. A9165), 10 mM nicotinamide (Sigma-Aldrich, cat. N0636), 1X B-27 supplement (Thermo Fisher Scientific, cat. 17504044), 1X N-2 supplement (Thermo Fisher Scientific, cat. […]
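Further: spheroids exposed to drugs for seven days before readout.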
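Wherever viability, T/C is given: percent viability relative to DMSO vehicle control taken as 100%.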

Row | Structure (SMILES) | viability, T/C (compound 0.0316 µM) | viability, T/C (compound 0.1 µM) | viability, T/C (compound 0.316 µM) | viability, T/C (compound 1 µM) | viability, T/C (compound 3.16 µM) | viability, T/C (compound 10 µM) | IC50 (curve of compound) | viability, T/C (compound 0.00949 µM) | viability, T/C (compound 0.03 µM) | viability, T/C (compound 0.0949 µM) | viability, T/C (compound 0.3 µM) | viability, T/C (compound 0.949 µM) | viability, T/C (compound 3 µM) | IC50 (compound alone, run of 10/31/2023)
1 | CCc1cc2c(N3CCc4c(cc(Cn5ccnc5)cc4-c4cn(C)nc4C(F)(F)F)C3=O)ccnc2c(OC)n1 | 72.1% and 87.3% and 77.8% | 65% and 74.8% and 74.2% | 53.4% and 64% and 69.2% | 54.6% and 64.1% and 67.8% | 63.3% and 59.9% and 57.4% | 37.2% and 57.8% and 53.6% | 3.4 µM and > 10 µM | – | – | – | – | – | – | –
2 | CC(=O)O[C@H]1C(=O)[C@@]2(C)[C@H]([C@H](OC(=O)c3ccccc3)[C@]3(O)C[C@H](OC(=O)[C@H](O)[C@@H](NC(=O)c4ccccc4)c4ccccc4)C(C)=C1C3(C)C)[C@]1(OC(C)=O)CO[C@@H]1C[C@@H]2O | – | – | – | – | – | – | < 0.00949 µM | 21.2% and 20.1% and 16.9% | 7.51% and 10.1% and 8.5% | 14.2% and 12.2% and 9.35% | 10.6% and 11.8% and 8.52% | 9.35% and 10.1% and 7.28% | 7.9% and 9.86% and 6.94% | –
3 | Nc1ccn(C2OC(CO)C(O)C2(F)F)c(=O)n1 (stereo unspecified) | 25.4% and 19.1% and 15.5% | 8.86% and 11.2% and 9% | 8.47% and 12.9% and 7.5% | 10.6% and 10.1% and 9.75% | 10.8% and 13.3% and 10.3% | 7.47% and 10.7% and 7.2% | < 0.0316 µM | – | – | – | – | – | – | –
4 | COC1C(OC(N)=O)C(O)C(Oc2ccc3c(O)c(NC(=O)c4ccc(O)c(CC=C(C)C)c4)c(=O)oc3c2C)OC1(C)C (stereo unspecified) | 83.6% [middle of 13 runs] | – | 88.3% [middle of 13 runs] | – | 89.8% [middle of 13 runs] | 81.1% [middle of 13 runs] | – | – | – | – | – | – | – | > 10 µM

Reference: PubChem BioAssay AID1963848 (Molecular Pharmacology Branch, DTP, NCI, 2024)
